{"source": "patent US10358531B2", "about": "“Crosslinked polymer nano-assemblies and uses thereof” (University of Massachusetts, priority 2011, dated 2019)", "key": {"MCF-7 cells": {"tested_on": "MCF-7 cells", "assay": "Cell uptake of free Dox and Dox-loaded nanogels by confocal microscopy", "format": "cell-based", "conditions": "20 μM Dox concentration, 3-4 h", "procedure": "For further study, the cell uptake of both free Dox and Dox-loaded nanogels (20 μM Dox concentration) was monitored using confocal microscopy over time. Initial internalization of Dox was observed within 3 h for free Dox and NG3-Dox, but not until 4 h for NG1-Dox (FIG. 9c-g). […] This is presumably the reason that the two nanogels show similar toxicities.\nLaser Scanning Confocal Microscopy: The laser confocal experiment was performed with MCF-7 cells. MCF-7 cells were cultured in T75 cell culture flask containing DMEM/F12 with 10% FBS supplement. The cells were seeded at 10,000 cells/100 μL in cover slip-bottomed Petri dishes and allowed to grow for 3 days at 37° C. in a 5% CO2 incubator. The cells in 2 mL of culture medium were treated with 200 μL of nanogels containing two dyes or doxorubicin and incubated at 37° C. for different time intervals before monitoring the cells by confocal microscopy."}, "MCF7 cells": {"tested_on": "MCF7 cells", "assay": "Toxicity of PTX-loaded carriers, Alamar Blue assay", "format": "cell-based", "conditions": "MCF7, 72 h, 10 μM PTX", "procedure": "(§1) Selective delivery of chemotherapeutic drug. To test whether the observed target selectivity would translate into differential cell kill efficiency, the ligand-coated nanogels encapsulating a chemotherapeutic drug molecule, paclitaxel (PTX) were prepared. The PTX-loaded polymeric aggregates (polymer-PTX), NG (NG-PTX) and NG-RGD (NG-RGD-PTX) were added to MCF7 cells and HeLa cells and the extent of cell death was investigated after 72 h. […] This supports the hypothesis that the polymeric micellar aggregates have a leaky nature, which leads to free drug being translocated through the cellular membrane. […] This is consistent with the observed slow internalization of nanogels, which should result in a reduced amount of chemotherapeutic inside the cells.\n(§2) Cell culture: The cell viabilities of the nanogels were tested with 293T cells. 293T cells were cultured in T75 cell culture flasks using Dulbecco's Modified Eagle Medium/Nutrient Mixture F-12 (DMEM/F12) with 10% fetal bovine serum (FBS) supplement. […] Cell viability was measured using the Alamar Blue assay with each data point measured in triplicate. Fluorescence measurements were made using the plate reader SpectraMax M5 by setting the excitation wavelength at 560 nm and monitoring emission at 590 nm on a black well plate. […] Cell death was measured by the Alamar Blue assay in triplicate."}, "HeLa cells [1]": {"tested_on": "HeLa cells", "assay": "Toxicity of PTX-loaded carriers, Alamar Blue assay", "format": "cell-based", "conditions": "72 h, 10 μM PTX", "procedure": "as §1, §2"}, "HeLa cells [2]": {"tested_on": "HeLa cells", "assay": "Intracellular delivery of DiI and FITC-β-gal by confocal microscopy", "format": "cell-based", "conditions": "without nanogel", "procedure": "Intracellular delivery of DiI and β-gal was also tested. As the nanogels consist of biodegradable disulfide crosslinkers, the release of the complexed protein and encapsulated lipophilic molecule can be triggered upon exposure to glutathione (present at higher concentrations inside the cells (mM), compared to the extracellular concentration […]). To compare the release profile of these dual delivery systems, NG1-CRRR and NG2-CRRR containing DiI in its interior and complexed with FITC labeled β-gal, were added to HeLa cells with serum and without serum. In the case of cell internalization of both encapsulated DiI and FITC labeled protein, a yellow color would be observed due to the co-localization and overlay of both red and green fluorophores for DiI and FITC, respectively. If there is no internalization of the nanogel, no color could be observed.\nFluorescence distribution of DiI and FITC was observed over time by confocal fluorescence microscopy with simultaneous excitation of both dye molecules at 488 nm and 543 nm for FITC and DiI, respectively. As shown in FIGS. 33a and 33b, green and red emissions were observed when the cells were treated with the nanogel-protein complexes. […] The green fluorescence of the FITC (label for protein) and red fluorescence for DiI (encapsulated small molecule) appear uniformly distributed. […]"}, "[3]": {"assay": "DLS size of NG-CRRR nanogels, β-gal and complexes; estimated numbers per complex", "format": "physicochemical", "excerpt": "Also evaluated were the size change and charge alteration of the nanogel surface due to the complexation event using DLS and zeta potential measurements respectively."}}, "data": [{"compound": "COc1cccc2c1C(=O)c1c(O)c3c(c(O)c1C2=O)C[C@@](O)(C(=O)CO)C[C@@H]3O[C@H]1C[C@H](N)[C@H](O)[C@H](C)O1", "note": "[free Dox, doxorubicin]", "values": [{"measurement": "intracellular localization of Dox", "setting": "MCF-7 cells", "value": "significant accumulation in the nucleus"}]}, {"compound": "CC(=O)O[C@H]1C(=O)[C@@]2(C)[C@H]([C@H](OC(=O)c3ccccc3)[C@]3(O)C[C@H](OC(=O)[C@H](O)[C@@H](NC(=O)c4ccccc4)c4ccccc4)C(C)=C1C3(C)C)[C@]1(OC(C)=O)CO[C@@H]1C[C@@H]2O", "note": "[free PTX, paclitaxel]", "values": [{"measurement": "toxicity (cell death)", "setting": "MCF7 cells", "value": "highly toxic"}, {"measurement": "toxicity (cell death)", "setting": "HeLa cells [1]", "value": "highly toxic"}]}, {"compound": "FITC-β-gal: β-gal functionalized with fluorescein", "values": [{"measurement": "intracellular delivery of protein alone", "setting": "HeLa cells [2]", "value": "no fluorescence"}]}, {"compound": "β-gal: β-galactosidase (pI: 4.8, from E. coli), the model protein", "values": [{"measurement": "hydrodynamic diameter", "setting": "[3]", "value": "~10", "unit": "nm"}, {"measurement": "intracellular delivery of protein alone", "setting": "HeLa cells [2]", "value": "not efficient"}]}]}
